Assay results as given in PubChem BioAssay AID256 (DTP/NCI, 2004).
Several values for one entry are separate records, joined by “and”; a condition that tells them apart may be missing. Identical values can stand only once. Toxic doses and inconclusive results are not listed.

Test system: CD2F1 mice, L1210 leukemia ip, survival T/C
Assay: NCI In Vivo Anticancer Drug Screen. Data for tumor model L1210 Leukemia (intraperitoneal) in CD2F1 (CDF1) mice
Conditions: higher = longer survival
How it was run: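 Antitumor effect is scored in animals hosting a serially transplanted tumor. Values compare compound-dosed animals against vehicle-only controls as a simple quotient.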

[1] = endpoint: mean survival time, dose: 50.0 mg/kg/injection, schedule: Q01DX009 (ip), vehicle: saline with Tween-80
[2] = endpoint: mean survival time, dose: 100.0 mg/kg/injection, schedule: Q01DX009 (ip), vehicle: saline with Tween-80
[3] = endpoint: mean survival time, dose: 200.0 mg/kg/injection, schedule: Q01DX009 (ip), vehicle: saline with Tween-80
[4] = endpoint: mean survival time, dose: 50.0 mg/kg/injection, schedule: Q01DX009 (ip), vehicle: saline
[5] = endpoint: mean survival time, dose: 100.0 mg/kg/injection, schedule: Q01DX009 (ip), vehicle: saline
[6] = endpoint: mean survival time, dose: 100.0 mg/kg/injection, schedule: Q04DX003 (ip), vehicle: saline with Tween-80
[7] = endpoint: mean survival time, dose: 200.0 mg/kg/injection, schedule: Q04DX003 (ip), vehicle: saline with Tween-80
[8] = endpoint: mean survival time, dose: 400.0 mg/kg/injection, schedule: Q04DX003 (ip), vehicle: saline with Tween-80
[9] = endpoint: mean survival time, dose: 25.0 mg/kg/injection, schedule: Q01DX009 (ip), vehicle: saline with Tween-80
[10] = endpoint: mean survival time, dose: 25.0 mg/kg/injection, schedule: Q04DX003 (ip), vehicle: saline with Tween-80
[11] = endpoint: mean survival time, dose: 50.0 mg/kg/injection, schedule: Q04DX003 (ip), vehicle: saline with Tween-80
[12] = endpoint: mean survival time, dose: 100.0 mg/kg/injection, schedule: Q01DX001 (ip), vehicle: saline with Tween-80
[13] = endpoint: mean survival time, dose: 200.0 mg/kg/injection, schedule: Q01DX001 (ip), vehicle: saline with Tween-80
[14] = endpoint: mean survival time, dose: 400.0 mg/kg/injection, schedule: Q01DX001 (ip), vehicle: saline with Tween-80
[15] = endpoint: mean survival time, dose: 100.0 mg/kg/injection, schedule: Q04DX002 (ip), vehicle: saline with Tween-80
[16] = endpoint: mean survival time, dose: 200.0 mg/kg/injection, schedule: Q04DX002 (ip), vehicle: saline with Tween-80
[17] = endpoint: mean survival time, dose: 400.0 mg/kg/injection, schedule: Q04DX002 (ip), vehicle: saline with Tween-80

## O=S(=O)(O)c1ccc(-c2nnc(-c3ccccn3)nc2-c2ccc(S(=O)(=O)O)cc2)cc1
endpoint: mean survival time, dose: 100.0 mg/kg/injection, schedule: Q01DX009 (ip), vehicle: saline sonified
  T/C: 96 % of control
endpoint: mean survival time, dose: 100.0 mg/kg/injection, schedule: Q04DX003 (ip), vehicle: saline
  T/C: 97 % of control
endpoint: mean survival time, dose: 200.0 mg/kg/injection, schedule: Q01DX009 (ip), vehicle: saline sonified
  T/C: 98 % of control
endpoint: mean survival time, dose: 200.0 mg/kg/injection, schedule: Q04DX003 (ip), vehicle: saline
  T/C: 97 % of control
endpoint: mean survival time, dose: 400.0 mg/kg/injection, schedule: Q01DX009 (ip), vehicle: saline sonified
  T/C: 94 % of control
endpoint: mean survival time, dose: 400.0 mg/kg/injection, schedule: Q04DX003 (ip), vehicle: saline
  T/C: 92 % of control

## CCNC(=S)NNc1ccccc1
[1]
  T/C: 103 % of control
[2]
  T/C: 100 % of control
[3]
  T/C: 88 % of control

## CCc1nc(N)nc(N)n1
[4]
  T/C: 104 % of control
[5]
  T/C: 100 % of control
endpoint: mean survival time, dose: 200.0 mg/kg/injection, schedule: Q01DX009 (ip), vehicle: saline
  T/C: 104 % of control

## O=S(=O)(O)c1cc(N=Nc2cccc3ccccc23)c(O)c2ncccc12
[6]
  T/C: 104 % of control
[7]
  T/C: 97 % of control
[8]
  T/C: 106 % of control

## c1ccc(-c2ncnc3ccccc23)cc1
[6]
  T/C: 103 % of control
[7]
  T/C: 101 % of control
[8]
  T/C: 97 % of control

## CCCCCCCCCCC(CCCCCCCCCC)=NN=C(CCCCCCCCCC)CCCCCCCCCC
endpoint: mean survival time, dose: 100.0 mg/kg/injection, schedule: Q01DX001 (ip), vehicle: Klucel (hydroxypropylcellulose) (HPC)
  T/C: 90 % of control
endpoint: mean survival time, dose: 200.0 mg/kg/injection, schedule: Q01DX001 (ip), vehicle: Klucel (hydroxypropylcellulose) (HPC)
  T/C: 86 % of control
endpoint: mean survival time, dose: 400.0 mg/kg/injection, schedule: Q01DX001 (ip), vehicle: Klucel (hydroxypropylcellulose) (HPC)
  T/C: 90 % of control

## COc1ccc(C(CC(=O)c2ccccc2)CC(=O)c2ccccc2)cc1
[9]
  T/C: 94 % of control
[10]
  T/C: 101 % of control
[1]
  T/C: 96 % of control
[11]
  T/C: 93 % of control
[6]
  T/C: 87 % of control

## O=C1OCCN1NCc1ccc(Cl)cc1
endpoint: mean survival time, dose: 12.5 mg/kg/injection, schedule: Q01DX009 (ip), vehicle: DMSO
  T/C: 88 % of control
endpoint: mean survival time, dose: 25.0 mg/kg/injection, schedule: Q01DX009 (ip), vehicle: DMSO
  T/C: 93 % of control
endpoint: mean survival time, dose: 50.0 mg/kg/injection, schedule: Q01DX009 (ip), vehicle: DMSO
  T/C: 89 % of control and 91 % of control
endpoint: mean survival time, dose: 100.0 mg/kg/injection, schedule: Q01DX009 (ip), vehicle: DMSO
  T/C: 96 % of control

## O=C1NC(=O)C2(CCc3ccccc32)N1 (stereo not drawn)
[6]
  T/C: 110 % of control
[7]
  T/C: 98 % of control
[8]
  T/C: 96 % of control

## O=C1c2ccccc2C(=O)c2c(NCCSCCO)ccc(NCCSCCO)c21
endpoint: mean survival time, dose: 16.0 mg/kg/injection, schedule: Q01DX009 (ip), vehicle: Klucel (hydroxypropylcellulose) (HPC)
  T/C: 100 % of control
endpoint: mean survival time, dose: 32.0 mg/kg/injection, schedule: Q01DX009 (ip), vehicle: Klucel (hydroxypropylcellulose) (HPC)
  T/C: 102 % of control
endpoint: mean survival time, dose: 64.0 mg/kg/injection, schedule: Q01DX009 (ip), vehicle: Klucel (hydroxypropylcellulose) (HPC)
  T/C: 93 % of control
endpoint: mean survival time, dose: 128.0 mg/kg/injection, schedule: Q01DX009 (ip), vehicle: Klucel (hydroxypropylcellulose) (HPC)
  T/C: 93 % of control
endpoint: mean survival time, dose: 256.0 mg/kg/injection, schedule: Q01DX009 (ip), vehicle: Klucel (hydroxypropylcellulose) (HPC)
  T/C: 102 % of control

## CCCCCNC(=O)Nc1cccc(Cl)c1C
[2]
  T/C: 94 % of control
[6]
  T/C: 88 % of control
[3]
  T/C: 92 % of control
[7]
  T/C: 92 % of control
[8]
  T/C: 92 % of control

## CN1CCC(COC(=O)C(O)(c2ccccc2)c2ccccc2)C1 (stereo not drawn)
[9]
  T/C: 100 % of control
[1]
  T/C: 100 % of control
[2]
  T/C: 94 % of control

## OC1COC(c2cnn(-c3ccccc3)n2)C1O (stereo not drawn)
endpoint: median survival time, dose: 12.5 mg/kg/injection, schedule: Q01DX005 (ip), vehicle: water
  T/C: 105 % of control and 110 % of control
endpoint: median survival time, dose: 25.0 mg/kg/injection, schedule: Q01DX005 (ip), vehicle: water
  T/C: 103 % of control
endpoint: median survival time, dose: 50.0 mg/kg/injection, schedule: Q01DX005 (ip), vehicle: water
  T/C: 105 % of control and 103 % of control
endpoint: median survival time, dose: 100.0 mg/kg/injection, schedule: Q01DX005 (ip), vehicle: water
  T/C: 103 % of control and 104 % of control
endpoint: median survival time, dose: 200.0 mg/kg/injection, schedule: Q01DX005 (ip), vehicle: water
  T/C: 100 % of control and 103 % of control
endpoint: median survival time, dose: 400.0 mg/kg/injection, schedule: Q01DX005 (ip), vehicle: water
  T/C: 107 % of control

## O=C1CC2CCCCC2CO1 (stereo not drawn)
endpoint: mean survival time, dose: 75.0 mg/kg/injection, schedule: Q01DX001 (ip), vehicle: saline
  T/C: 160 % of control

## N#C/C(=C\c1cc(Br)cc(Br)c1O)c1ccc([N+](=O)[O-])cc1
[2]
  T/C: 103 % of control
[3]
  T/C: 96 % of control
endpoint: mean survival time, dose: 400.0 mg/kg/injection, schedule: Q01DX009 (ip), vehicle: saline with Tween-80
  T/C: 94 % of control

## Cc1ccc(S(=O)(=O)OCC2OCOC(C(O)CI)C2O)cc1 (stereo not drawn)
[12]
  T/C: 92 % of control
[13]
  T/C: 92 % of control
[14]
  T/C: 102 % of control

## Nc1cccc2ccc(S(=O)(=O)O)cc12
[2]
  T/C: 101 % of control
[3]
  T/C: 106 % of control

## c1ccc2cc(N=NNc3ccc4ccccc4c3)ccc2c1
[1]
  T/C: 94 % of control
[2]
  T/C: 98 % of control
[6]
  T/C: 95 % of control
[3]
  T/C: 100 % of control
[7]
  T/C: 92 % of control

## O=[N+]([O-])C(Br)C(Br)c1ccccc1 (stereo not drawn)
endpoint: mean survival time, dose: 6.25 mg/kg/injection, schedule: Q01DX001 (ip), vehicle: Klucel (hydroxypropylcellulose) (HPC)
  T/C: 96 % of control
endpoint: mean survival time, dose: 12.5 mg/kg/injection, schedule: Q01DX001 (ip), vehicle: Klucel (hydroxypropylcellulose) (HPC)
  T/C: 97 % of control
endpoint: mean survival time, dose: 25.0 mg/kg/injection, schedule: Q01DX001 (ip), vehicle: Klucel (hydroxypropylcellulose) (HPC)
  T/C: 91 % of control
endpoint: mean survival time, dose: 50.0 mg/kg/injection, schedule: Q01DX001 (ip), vehicle: Klucel (hydroxypropylcellulose) (HPC)
  T/C: 102 % of control

## COc1ccc(C2=NC(C)Cc3cc(OC)c(OC)cc32)cc1OC (stereo not drawn)
endpoint: mean survival time, dose: 12.5 mg/kg/injection, schedule: Q01DX009 (ip), vehicle: water
  T/C: 96 % of control
endpoint: mean survival time, dose: 25.0 mg/kg/injection, schedule: Q01DX009 (ip), vehicle: water
  T/C: 94 % of control
endpoint: mean survival time, dose: 50.0 mg/kg/injection, schedule: Q01DX009 (ip), vehicle: water
  T/C: 94 % of control
endpoint: mean survival time, dose: 100.0 mg/kg/injection, schedule: Q01DX009 (ip), vehicle: water
  T/C: 91 % of control

## COc1ccc(OC)c(CCN)c1
endpoint: mean survival time, dose: 12.5 mg/kg/injection, schedule: Q01DX009 (ip), vehicle: saline with Tween-80
  T/C: 101 % of control
[9]
  T/C: 102 % of control
[10]
  T/C: 100 % of control
[1]
  T/C: 93 % of control
[11]
  T/C: 97 % of control
[6]
  T/C: 108 % of control

## COc1c(C)c2c(c(O)c1C/C=N\O)C(=O)OC2
[15]
  T/C: 100 % of control
[16]
  T/C: 100 % of control
[17]
  T/C: 100 % of control

## c1ccc2nc3c(nc2c1)[nH]c1ccccc13
[12]
  T/C: 100 % of control
[13]
  T/C: 92 % of control
[14]
  T/C: 89 % of control

## CC1(C)OCC(C2OC(C)(C)OC2C2COC(C)(C)O2)O1 (stereo not drawn)
[15]
  T/C: 100 % of control
[16]
  T/C: 94 % of control
[17]
  T/C: 101 % of control

## CCOC(=O)c1[nH]c(C2OC(CO)C(O)C2O)nc1O (stereo not drawn)
endpoint: median survival time, dose: 49.9 mg/kg/injection, schedule: Q01DX005 (ip), vehicle: saline
  T/C: 96 % of control
endpoint: median survival time, dose: 99.7 mg/kg/injection, schedule: Q01DX005 (ip), vehicle: saline
  T/C: 98 % of control
endpoint: median survival time, dose: 199.3 mg/kg/injection, schedule: Q01DX005 (ip), vehicle: saline
  T/C: 96 % of control

## CC(NC(=O)c1cccnc1)C(=O)O (stereo not drawn)
endpoint: median survival time, dose: 25.0 mg/kg/injection, schedule: Q04DX003 (ip), vehicle: saline
  T/C: 105 % of control
endpoint: median survival time, dose: 50.0 mg/kg/injection, schedule: Q04DX003 (ip), vehicle: saline
  T/C: 115 % of control
endpoint: median survival time, dose: 100.0 mg/kg/injection, schedule: Q04DX003 (ip), vehicle: saline
  T/C: 94 % of control
endpoint: median survival time, dose: 200.0 mg/kg/injection, schedule: Q04DX003 (ip), vehicle: saline
  T/C: 94 % of control

## Cc1cc2[nH]cnc2cc1Cl
[4]
  T/C: 98 % of control
[5]
  T/C: 106 % of control
